Data set [1] has as its system HEC59 cells (msh2 deficient). In words: Cell viability assay (CellTiter 96 Aqueous One Solution), MSH2-deficient endometrial cells. In kind it is cell-based. Particulars: Homo sapiens; HEC59, drug 24 hours; graphs not reaching 50% mortality were extrapolated; NA = data did not reach below 50%, no extrapolation possible; read-out: 50IC MSH2 deficient. The procedure: (§1) HEC59 cells (msh2 deficient) and the paired cell line HEC59 chr. that restores the MSH2-deficiency via chromosome transfer have been extensively characterized (Umar et al., 1997). Cells were grown in standard growth media (DMEM-F12+10% FBS). Cells were plated in microtiter plates at an appropriate concentration in 100 μl media and incubated overnight. Media was replaced with media containing drug and allowed to incubate for 24 hours at indicated concentrations. Untreated cells received fresh media with vehicle only. One solution reagent (CellTiter 96)(r) Aqueous One Solution) was added to existing media (20 μl/well) and allowed to incubate 3-4 hrs. A plate reader was used to record the absorbance at 490 nm. Assays were performed at least in triplicates. Cell viability at each concentration was analyzed for IC50 values using GraphPad Prism 4™. Graphs represent mean values and standard deviations.
(§2) We next tested these new rescinnamine analogs in a well-defined cellular system with an endometrial cell line deficient (HEC59) and proficient (via chromosome transfer, HEC59+chr.2) for MSH2. […] No significant difference was detected when determining the IC50 values.

Data set [2] deals with HEC59+chr.2 (MSH2 proficient via chromosome transfer). In words: Cell viability assay (CellTiter 96 Aqueous One Solution), MSH2-proficient endometrial cells. To be noted: Homo sapiens; HEC59+chr.2, drug 24 hours; graphs not reaching 50% mortality were extrapolated; NA = data did not reach below 50%, no extrapolation possible; read-out: 50IC MSH2 proficient. It counts as cell-based. On the procedure:
as §1, §2

The test system of another data set is HEC59 and HEC59+chr.2. In words: Cell viability compared between the paired MSH2-deficient and MSH2-proficient endometrial cell lines. To be noted: for change of IC50 when MSH2 is present: HEC59+chr.2 vs HEC59; for change in sensitivity to MSH2: comparison of isomers, MSH2 proficient vs deficient IC50; for difference between MSH2-proficiency and deficiency (MSH2-dependence of cell killing): HEC59 vs HEC59+chr.2; for cell killing: endometrial cell line deficient (HEC59) and proficient (HEC59+chr.2) for MSH2, data not shown. It counts as cell-based, human. On the procedure:
as §1, §2

Another data set relates to ovarian cancer cells. The data set can be described thus: Overcoming resistance to cisplatin in ovarian cancer cells. In kind it is cell-based. To be noted: data not shown.
Another data set deals with SW416 or HEC59 cells. In words: Xenograft model. It counts as in vivo, mice. The procedure: SW416 or HEC59 cells in PBS mixed with Matrigel (1:1; BD Biosciences) were subcutaneously injected into the flank of nude donor mice. Tumors were grown for up to 3 weeks. Mice were euthanized, tumors excised, minced into 3 mm pieces, and surgically implanted into the right flank of acceptor mice (10 per group). Isoflurane anesthesia was provided during tumor inoculation. Injection of compounds was started 3 days following tumor implantation to allow recovery from surgery. Compounds were given intraperitoneally, in a volume of 0.5 ml/mouse with a ¼ inch, 23-gauge needle in a 6 ml plastic syringe. Mice were monitored based on survival and body weight. Tumor size, measured by caliper, and body weight were monitored […] for 57 days, and the prolongation of median survival time after ip treatment determined. Any animals showing signs of distress, unnatural movements, severe loss of appetite, severe signs of hypotension, tumor size of […], or weight loss exceeding 10% before the end of the study were euthanized. Tumors were measured twice a week for each group. Tumor volume is calculated as length(mm)×width (mm)^2. Initial measurements were performed when the tumor reached 150-200 mg. Tumor weight (in mg) is calculated as tumor weight (mg)[…](length(mm) of tumor×width (mm) of tumor^2)/2.

A further data set has as its system MSH2. To be noted: previously shown (Vasilyeva 2009, 2010); cited from earlier work.

Usually melting point stands for the temperature of the solid-liquid transition.

As for `COC(=O)[C@H]1[C@H]2C[C@@H]3c4[nH]c5cc(OC)ccc5c4CCN3C[C@H]2C[C@@H](OC(=O)/C=C/c2ccc(C(=O)O)c(OC)c2)[C@@H]1OC` [SA-I-013], the IC50 in data set [1] is 163 µM. Further, in data set [2], the IC50 is 1220 µM. Further, in the data set with HEC59 and HEC59+chr.2, the “change of IC50 when MSH2 is present” value is on record as “reduction in IC50 when MSH2 is present” and the “change in sensitivity to MSH2” value is given as around 8 fold.
Regarding `COC(=O)[C@H]1[C@H]2C[C@@H]3c4[nH]c5cc(OC)ccc5c4CCN3C[C@H]2C[C@@H](OC(=O)/C=C/c2ccc(OC)c(C(=O)O)c2)[C@@H]1OC` [SA-I-015], the IC50 is 89.3 µM in data set [1] and 84.2 µM in data set [2].
In the case of `COC(=O)[C@H]1[C@H]2C[C@@H]3c4[nH]c5cc(OC)ccc5c4CCN3C[C@H]2C[C@@H](OC(=O)/C=C/c2ccc(O)c(OC)c2)[C@@H]1OC` [SA-I-016], in the data set with HEC59 and HEC59+chr.2, the “difference between MSH2-proficiency and deficiency (MSH2-dependence of cell killing)” value was “small difference between MSH2-proficiency and deficiency”.
For the compound `COC(=O)[C@H]1[C@H]2C[C@@H]3c4[nH]c5cc(OC)ccc5c4CCN3C[C@H]2C[C@@H](OC(=O)/C=C/c2cc(OC)c(O)c(OC)c2)[C@@H]1OC` [SA-I-027], the IC50 in data set [1] is 47.7 µM; in data set [2] it was 54.5 µM. For the same compound, the cell killing entry in the data set on HEC59 and HEC59+chr.2 was “induced cell killing in the micromolar range”.
For the compound `C=CC(=O)O[C@@H]1C[C@@H]2CN3CCc4c([nH]c5cc(OC)ccc45)[C@H]3C[C@@H]2[C@H](C(=O)OC)[C@H]1OC` [SA-I-03, Acryloyl Reserpate], the melting point was above 260 °C. For the same compound, the IC50 in data set [1] is 20.7 µM. Moreover, the IC50 in data set [2] was 20.4 µM. Further, the cell killing result with HEC59 and HEC59+chr.2 was “induced cell killing in the micromolar range”.
Take `COC(=O)[C@H]1[C@H]2C[C@@H]3c4[nH]c5cc(OC)ccc5c4CCN3C[C@H]2C[C@@H](OC(=O)/C=C/c2ccc(OC)c(O)c2)[C@@H]1OC` [SA-I-020]: the IC50 in data set [1] was 22.3 µM; in data set [2], 21.3 µM. The cell killing entry in the data set with HEC59 and HEC59+chr.2 is “induced cell killing in the micromolar range”.
The compound `CCC(=O)O[C@@H]1C[C@@H]2CN3CCc4c([nH]c5cc(OC)ccc45)[C@H]3C[C@@H]2[C@H](C(=O)OC)[C@H]1OC` [SA-I-058, Propionoyl Reserpate] returned a melting point of 258 °C.
In the case of `COC(=O)[C@H]1[C@H]2C[C@@H]3c4[nH]c5cc(OC)ccc5c4CCN3C[C@H]2C[C@@H](OC(=O)/C=C/c2ccc(OC)c(OC(C)=O)c2)[C@@H]1OC` [SA-I-019], the IC50 in data set [1] was 39.3 µM. Also, the cell killing entry with HEC59 and HEC59+chr.2 was “induced cell killing in the micromolar range”.
Take `COC(=O)[C@H]1[C@H]2C[C@@H]3c4[nH]c5cc(OC)ccc5c4CCN3C[C@H]2C[C@@H](OC(=O)/C=C/c2cc(OC)c(OC)c(OC)c2)[C@@H]1OC` [rescinnamine]: in the data set with ovarian cancer cells, the “overcoming resistance to cisplatin” value is “capable of overcoming resistance to cisplatin in ovarian cancer cells”. For the same compound, the “hypotensive activity limiting the dose” value in the data set on SW416 or HEC59 cells is “hypotensive activity of the drug prevented administration of statistically effective doses”. Besides, the tumor inhibition result in the data set with SW416 or HEC59 cells (data not shown) is “significant trend toward tumor inhibition”. Further, in the data set with MSH2, the “induction of MSH2-dependent cell death” value is “capable of inducing cell death in an MSH2-dependent manner”.
Turning to `COC(=O)[C@H]1[C@H]2C[C@@H]3c4[nH]c5cc(OC)ccc5c4CCN3C[C@H]2C[C@@H](OC(=O)/C=C/c2ccc(OC)c(N)c2)[C@@H]1OC` [SA-I-029], the IC50 was 77.2 µM in data set [1] and 113 µM in data set [2]. Also, in the data set on HEC59 and HEC59+chr.2, the “change of IC50 when MSH2 is present” value is given as “reduction in IC50 when MSH2 is present”. In addition, the “change in sensitivity to MSH2” value in the data set on HEC59 and HEC59+chr.2 is recorded as around 2 fold.
`COC(=O)c1cc(/C=C/C(=O)O[C@@H]2C[C@@H]3CN4CCc5c([nH]c6cc(OC)ccc56)[C@H]4C[C@@H]3[C@H](C(=O)OC)[C@H]2OC)ccc1OC` [SA-I-012]: the figures for the IC50 in data set [1] and in data set [2] were 50.7 µM and 48.9 µM, respectively.
For the compound `COC(=O)[C@H]1[C@H]2C[C@@H]3c4[nH]c5cc(OC)ccc5c4CCN3C[C@H]2C[C@@H](OC(=O)c2cc(OC)c(OC)c(OC)c2)[C@@H]1OC` [reserpine], the “induction of MSH2-dependent cell death” value in the data set with MSH2 is “capable of inducing cell death in an MSH2-dependent manner”.
For `COC(=O)[C@H]1[C@H]2C[C@@H]3c4[nH]c5cc(OC)ccc5c4CCN3C[C@H]2C[C@@H](OC(=O)/C=C/c2ccc(N)c(OC)c2)[C@@H]1OC` [SA-I-039], the IC50 in data set [1] is 85.7 µM. For the same compound, the IC50 in data set [2] was 68.4 µM. In addition, in the data set with HEC59 and HEC59+chr.2, the “difference between MSH2-proficiency and deficiency (MSH2-dependence of cell killing)” value is “small difference between MSH2-proficiency and deficiency”; the “change in sensitivity to MSH2” value is around 2 fold; the cell killing result is given as “induced cell killing in the micromolar range”.

These data come from US20140323511A1, “CHEMOTHERAPEUTIC FOR INDUCING AN MSH2 DEPENDENT APOPTOTIC PATHWAY” (Wake Forest University Health Sciences, priority 2013, published 2014).
